{
  "source": "paper PMC3310374",
  "about": "(Bioconjugate Chemistry, 2012)",
  "tested_on": "PC-3 cells",
  "assay": "Flow cytometric analysis of hypoxic cell induction",
  "format": "cell-based, human",
  "conditions": "for Mean fluorescence (FITC antibody against pimonidazole adducts): 10 μM pimonidazole, 2 h",
  "data": [
    {"molecule": "O=[N+]([O-])c1nccn1CC(O)CN1CCCCC1", "note": "(stereo not drawn) [pimonidazole]", "values": [
      {"measurement": "Increase in pimonidazole binding, hypoxic compared to normoxic", "setting": "PC-3 cells, flow cytometry", "value": "fivefold increase"},
      {"measurement": "Mean fluorescence (FITC antibody against pimonidazole adducts)", "setting": "hypoxic PC-3 cells (94.9% N2, 0.1% O2, 5% CO2)", "value": 286},
      {"measurement": "Mean fluorescence (FITC antibody against pimonidazole adducts)", "setting": "normoxic PC-3 cells (95% air, 5% CO2)", "value": 56.8}
    ]}
  ]
}
